Assay results as given in patent publication US5801180A, “Quinazoline derivatives” (priority 1991, dated 1998).

Molecular target: T1, cGMP-PDE prepared from the swine aeorta (Sus scrofa, UniProt A0A287B475)
T1 construct: The swine aeorta was sliced; from tissue; host or cells: swine aorta, 100000×g supernatant, DEAE-Toyopearl 650S fraction
Experiment: Enzyme inhibiting action with the use of cGMP-PDE prepared from the swine aorta
Assay type: biochemical
Conditions: CaM-independent cGMP-PDE, 1 mM EGTA, 1 μM cGMP substrate, DMSO 4% or below
Protocol: Enzyme inhibiting action with the use of cGMP-PDE prepared from the swine aeorta
The enzymatic activity of the cGMP-PDE prepared from the swine aeorta was determined according to the method of Thompson et al. ^(1). The enzymatic activity thereof was determined in the presence of 1 mM EGTA by the use of 1 μM cGMP as a substrate. The compound of the present invention was dissolved in DMSO, added to the reaction liquid and examined for the inhibitory activity. The final concentration of DMSO in the reaction liquid was adjusted to 4% or below. (1) Thompson, W. J. and Strada, S. J., Cyclic Nucleotide Phosphodiesterase (PDE), in Methods of Enzymatic Analysis, vol 4, p.127-234, 1984.
The swine aeorta was sliced, followed by the addition of 10 times by volume as much Buffer A (20 mM Tris/HCl, 2 mM Mg acetate, 1 mM Dithiothreitol, 5 mM EDTA, 1400 TIU/liter aprotinin, 10 mg/liter leupeptin, 1 mM benzamidine, 0.2 mM PMSF, pH 7.5). The obtained mixture was homogenized and the homogenate was centrifuged at 100000×g for one hour. The obtained supernatant was supplied a DEAE-Toyopearl 650S (Tosoh, Tokyo, Japan) column. After the column was washed with Buffer B (50 mM Tris/HCl, 0.1 mM EGTA, 2 mM Mg acetate, 1 mM Dithiothreitol, 0.2 mM PMSF, pH 7.5), gradient elution with 0.05 to 0.4M NaCl was conducted. Thus, CaM-independent cGMP-PDE fractions were obtained.

| IC50 [nM] | SMILES |
| --- | --- |
| 13 | COc1ccc2nc(N3CCC(C(=O)O)CC3)nc(NCc3ccc4c(c3)OCO4)c2c1 [Example 233, 2-(4-Carboxypiperidino)-4-(3,4-methylenedioxybenzyl)amino-6-methoxyquinazoline] |
| 12 | Oc1nc(NCc2ccc3c(c2)OCO3)c2cc(Cl)ccc2n1 [Example 177, 2-Hydroxy-4-(3,4-methylenedioxybenzyl)amino-6-chloroquinazoline] |
| 6 | O=C(O)C1CCN(c2nc(NCc3ccc4[nH]cnc4c3)c3cc(Cl)ccc3n2)CC1 [Example 236, 2-(4-Carboxypiperidino)-4-(benzimidazol-5-yl)methylamino-6-chloroquinazoline] |
| 110 | O=CNc1cc(CNc2ncnc3ccc(Cl)cc23)ccc1Cl [Example 152, 4-(4-Chloro-3-formamidobenzyl)amino-6-chloroquinazoline] |
| 26 | COc1nc(NCc2ccc3c(c2)OCO3)c2cc(C#N)ccc2n1 [Example 166, 2-Methoxy-4-(3,4-methylenedioxybenzyl)amino-6-cyanoquinazoline] |
| 3 | OCCCCCCOc1nc(NCc2ccc3c(c2)OCO3)c2cc(Cl)ccc2n1 [Example 176] |
| 11 | OCC(O)COc1nc(NCc2ccc3c(c2)OCO3)c2cc(Cl)ccc2n1 (stereo not shown) [Example 178, 2-(2,3-Dihydroxypropyl)oxy-4-(3,4-methylenedioxybenzyl)amino-6-chloroquinazoline] |
| 0.15 | COc1ccc(CNc2nc(N(C)CCCC(=O)O)nc3ccc(C#N)cc23)cc1Cl [Example 243, 2-[N-(3-Carboxypropyl)-N-methylamino]-4-(3-chloro-4-methoxybenzyl)amino-6-cyanoquinazoline] |
| 180 | CN(CC(=O)O)c1nc(NCc2ccc3c(c2)OCO3)c2cc(C#N)ccc2n1 [Example 241, 2-(N-Carboxymethyl-N-methylamino)-4-(3,4-methylenedioxybenzyl)amino-6-cyanoquinazoline] |
| 21 | O=C(O)C1CCN(c2nc(NCc3ccc4c(c3)OCO4)c3cc(Br)ccc3n2)CC1 [Example 376] |
| 270 | COc1ccc(CNc2ncnc3ccc(Cl)cc23)cc1OC [Example 59, 4-(3,4-Dimethoxybenzyl)amino-6-chloroquinazoline] |
| 770 | NC(=O)c1ccc2ncnc(NCc3ccc4c(c3)OCO4)c2c1 [Example 133, 4-(3,4-Methylenedioxybenzyl)amino-6-carbamoylquinazoline] |
| 5.8 | CN(CCCC(=O)O)c1nc(NCc2ccc3c(c2)OCO3)c2cc(C#N)ccc2n1 [Example 230, 2-[N-(3-Carboxypropyl)-N-methylamino]-4-(3,4-methylenedioxybenzyl)amino-6-cyanoquinazoline] |
| 0.19 | CCOC(=O)C1CCN(c2nc(NCc3ccc(OC)c(Cl)c3)c3cc(C#N)ccc3n2)CC1 [Example 208, 2-(4-Ethoxycarbonylpiperidino)-4-(3-chloro-4-methoxybenzyl)amino-6-cyanoquinazoline] |
| 4 | CCOC(=O)c1nc(NCc2ccc3c(c2)OCO3)c2cc(Cl)ccc2n1 [Example 107, 2-Ethoxycarbonyl-4-(3,4-methylenedioxybenzyl)amino-6-chloroquinazoline] |
| 300 | COc1cc2c(NCc3ccc4c(c3)OCO4)nc(/C=C(/C)C(=O)O)nc2c(OC)c1OC [Example 128, (Z)-2-(2-Carboxy-1-propenyl)-4-(3,4-methylenedioxybenzyl)amino-6,7,8-trimethoxyquinazoline] |
| 410 | COc1ccc2ncnc(NCc3ccc4nc[nH]c4c3)c2c1 [Example 45, 4-(Benzimidazol-5-ylmethyl)amino-6-methoxyquinazoline] |
| 780 | COc1cc2c(NCc3ccc4c(c3)OCCO4)ncnc2c(OC)c1OC [Example 25, 4-(4-Ethylenedioxybenzyl)amino-6,7,8-trimethoxyquinazoline] |
| 370 | COc1cc2c(NCc3cc4c(cc3Cl)OCO4)ncnc2c(OC)c1OC [Example 33, 4-(2-Chloro-4,5-methylenedioxybenzyl)amino-6,7,8-trimethoxyquinazoline] |
| 120 | COCCN(Cc1ccc2c(c1)OCO2)c1ncnc2ccc(SC)cc12 [Example 53, 4-[N-(2-Methoxyethyl)-(3,4-methylenedioxybenzyl)amino]-6-methylthioquinazoline] |
| 11 | N#Cc1ccc2nc(OCCO)nc(NCc3ccc4c(c3)OCO4)c2c1 [Example 169, 2-(2-Hydroxyethoxy)-4-(3,4-methylenedioxybenzyl)amino-6-cyanoquinazoline] |

| IC50 [nM] | SMILES |
| --- | --- |
| 6.5 | O=C(O)C1CCN(c2nc(NCc3ccc4c(c3)OCO4)c3cc(Cl)ccc3n2)CC1 [Example 222, 2-(4-Carboxypiperidino)-4-(3,4-methylenedioxybenzyl)amino-6-chloroquinazoline] |
| 8 | Clc1ccc2nc(N3CCOCC3)nc(NCc3ccc4c(c3)OCO4)c2c1 [Example 182, 2-Morpholino-4-(3,4-methylenedioxybenzyl)amino-6-chloroquinazoline] |
| 0.24 | CCOC(=O)CCCN(C)c1nc(NCc2ccc(OC)c(Cl)c2)c2cc(C#N)ccc2n1 [Example 220] |
| 2 | CCOC(=O)/C=C/c1nc(NCc2ccc(OC)c(Cl)c2)c2cc(Cl)ccc2n1 [Example 115, (E)-2-(2-Ethoxycarbonylvinyl)-4-(3-chloro-4-methoxybenzyl)amino-6-chloroquinazoline] |
| 30 | O=[N+]([O-])c1cc(CNc2ncnc3ccc(Cl)cc23)ccc1Cl [Example 55] |
| 500 | c1ccc2cc3c(NCc4ccc5c(c4)OCO5)ncnc3cc2c1 [Example 78, 4-(3,4-Methylenedioxybenzyl)aminobenzo[g]quinazoline] |
| 9 | N#Cc1ccc2nc(N3CCC(C(=O)O)CC3)nc(NCc3ccc4nc[nH]c4c3)c2c1 [Example 244, 2-(4-Carboxypiperidino)-4-(benzimidazol-5-yl)methylamino-6-cyanoquinazoline] |
| 29 | OCCNc1nc(NCc2ccc3c(c2)OCO3)c2cc(Cl)ccc2n1 [Example 188, 2-(2-Hydroxyethyl)amino-4-(3,4-methylenedioxybenzyl)amino-6-chloroquinazoline] |
| 110 | COc1cc2c(NCc3ccc4c(c3)OCO4)nc(/C=C(\C)C(=O)O)nc2c(OC)c1OC [Example 127, (E)-2-(2-Carboxy-1-propenyl)-4-(3,4-methylenedioxybenzyl)amino-6,7,8-trimethoxyquinazoline] |
| 28 | CNC(=O)N(C(=O)NC)c1nc(NCc2ccc3c(c2)OCO3)c2cc(Cl)ccc2n1 [Example 203, 2-Bis(methylcarbamoyl)amino-4-(3,4-methylenedioxybenzyl)amino-6-chloroquinazoline] |
| 110 | COc1nc2ccc(Cl)cc2n1Cc1ccc2c(c1)OCO2 [Example 266, 6-Chloro-2-methoxy-1-(3,4-methylenedioxybenzyl)benzimidazole] |
| 390 | COc1cc2c(NCc3ccc(Cl)c(Cl)c3)ncnc2c(OC)c1OC [Example 19, 4-(3,4-Dichlorobenzyl)amino-6,7,8-trimethoxyquinazoline] |
| 650 | O=C(O)c1nc(NCc2ccc3c(c2)OCO3)c2cc(Cl)ccc2n1 [Example 121, 2-Carboxy-4-(3,4-methylenedioxybenzyl)amino-6-chloroquinazoline] |
| 42 | Clc1ccc2ncnc(NCc3ccc(Cl)c(Cl)c3)c2c1 [Example 58, 4-(3,4-Dichlorobenzyl)amino-6-chloroquinazoline] |
| 650 | CCN(Cc1ccc2c(c1)OCO2)c1ncnc2c(OC)c(OC)c(OC)cc12 [Example 40] |
| 790 | COc1cc2nc(Cl)nc(NCc3ccc4c(c3)OCO4)c2cc1OC [Example 97] |
| 2 | CCOC(=O)/C(C)=C/c1nc(NCc2ccc3c(c2)OCO3)c2cc(Cl)ccc2n1 [Example 112, (E)-2-(2-Ethoxycarbonyl-1-propenyl)-4-(3,4-methylenedioxybenzyl)amino-6-chloroquinazoline] |
| 2 | N#Cc1ccc2nc(OCCCC(=O)O)nc(NCc3ccc4c(c3)OCO4)c2c1 [Example 179, 2-(3-Carboxypropyl)oxy-4-(3,4-methylenedioxybenzyl)amino-6-cyanoquinazoline] |
| 550 | COc1ccc2nc(C(C)C)nc(NCc3ccc4c(c3)OCO4)c2c1 [Example 82, 2-Isopropyl-4-(3,4-methylenedioxybenzyl)amino-6-methoxyquinazoline] |
| 16 | COc1nc(NCc2ccc3c(c2)OCO3)c2cc(Cl)ccc2n1 [Example 165, 2-Methoxy-4-(3,4-methylenediokybenzyl)amino-6-chloroquinazoline] |
| 810 | CS(=O)(=O)c1ccc2ncnc(NCc3ccc4c(c3)OCO4)c2c1 [Example 138, 4-(3,4-Methylenedioxybenzyl)amino-6-methysulfonylquinazoline] |

| SMILES | IC50 [nM] |
| --- | --- |
| COc1ccc2nc(N3CCC(C(=O)O)CC3)nc(NCc3ccc(OC)c(Cl)c3)c2c1 [Example 234, 2-(4-Carboxypiperidino)-4-(3-chloro-4-mehtoxybenzyl)amino-6-methoxyquinazoline] | 6 |
